Reference: patent publication US20230136562A1, “SPIROUREA DERIVATIVES” (Idorsia Pharmaceuticals Ltd, priority 2020, published 2023)
pEC50: −log10 of the molar value. Like-named read-outs stand apart in the source and are kept apart here.

What was measured:
Kv7.2/7.3 = biological target: T1, Kv7.2/7.3 (Homo sapiens, UniProt O43525+O43526); test: Kv7.2/3 assay (FLIPR potassium assay, agonist mode); assay type: cell-based; conditions: Kv7.2/7.3 activation; HEK293 cells, human KCNQ2 and KCNQ3
T1 construct: expressed in transfected cells; host or cells: HEK293
Protocol: HEK293 cells were stably transfected with the appropriate ion channel cDNA(s) (human KCNQ2 and KCNQ3 genes). Cells were cultured in Dulbecco's Modified Eagle Medium/Nutrient mixture F-12 (D-MEM/F-12) supplemented with 10% fetal bovine serum, 100 U/mL penicillin G sodium, 100 µg/mL streptomycin sulfate and selection antibiotics. FLIPR Test Procedure: For FLIPR assay, cells were plated in 384-well black clear-bottomed microtiter plates (BD Biocoat Poly-D-Lysine Multiwell Cell Culture Plate) at 15'000 to 30'000 cells per well. Cells were incubated at 37° C. overnight or until cells reached sufficient density in the wells (near confluent monolayer) to use in fluorescence assays. […] Assays were performed with the FLIPR potassium assay kit (Molecular Devices) according to the manufacturer's instructions. Dye-loading: Growth media was removed and replaced with 20 μL of dye loading buffer for 60 min at room temperature. FLIPR Recording (agonist mode): Stock solutions of test compounds were prepared at a concentration of 33.3 mM in DMSO. 5 μL of 5× concentrated test, vehicle, or control compounds solutions prepared in the stimulation buffer (K^+-free buffer with 5 mM TI^+) were added to each well and fluorescence recording was continued for 5 min. The agonist effect (EC50 and % effect) of test or control compounds on Kv7 channels was determined as follows: Raw data was exported using Screenworks® 4.2 software and the fluorescence traces were analysed using Microsoft Excel (Microsoft Corp., Redmond, Wash.). The test compounds responses were expressed as % of maximum response of the control compound Flupirtine (Sigma-Aldrich), which was tested at concentrations ranging from 0.03 to 100 μM. Concentration-response data were fitted to a Hill equation. Non-linear least squares fits were made assuming a simple binding model. If appropriate, fits were weighted by the standard deviation. No assumptions about the fit parameters were made; the fit parameters were determined by the algorithm.

[1] = tested on: primary neuronal cultures from embryonic rat brains; test: Rat oscillation assay (FLIPR, neuronal calcium oscillations); assay type: cell-based
Method in brief: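 Cortical neurons from E18 Wistar rat embryos, cultured 8–10 days at high density, loaded with 1 μM Fluo-8 AM; calcium oscillations recorded by FLIPR once per second in Mg-free HBSS with 2 mM CaCl2, 20 mM HEPES, pH 7.4. Two acquisitions ("Acute", 500 sec, compound added at 250 sec; "20 min"), ± Kv7 blocker XE-991.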

[2] = Rattus norvegicus, 20 min, AUC of fluorescence measured 20 min after compound addition, read-out: FLIPR: IC50 [nM] 20 min
[3] = Rattus norvegicus, Acute phase, ratio of AUC fluorescence before and after compound addition, read-out: FLIPR: IC50 [nM] acute
[4] = AUC of fluorescence measured 20 min after compound addition, read-out: FLIPR: IC50 [nM] 20 min
[5] = Acute phase, ratio of AUC fluorescence before and after compound addition, read-out: FLIPR: IC50 [nM] acute

SMILES | pEC50 (Kv7.2/7.3) | IC50 [1, 2] [nM] | IC50 [1, 3] [nM] | IC50 [1, 4] [nM] | IC50 [1, 5] [nM]
C[C@H](NC(=O)NC1CC2(CCC2)C1)c1ccc(F)c(OCC(F)(F)F)c1 (single isomer, unassigned) [Example 177] | 8.15 | 24 | 22 |  | 
O=C(NCc1cccc(C(F)(F)F)c1)NC1CC2(CCC2)C1 [Example 1, 1-Spiro[3.3]hept-2-yl-3-(3-trifluoromethyl-benzyl)-urea] | 7.52 | 20 | 27 |  | 
O=C(NCc1ccnc(OCC(F)(F)F)c1)NC1CC2(CCC2)C1 [Example 103, 1-Spiro[3.3]hept-2-yl-3-[2-(2,2,2-trifluoro-ethoxy)-pyridin-4-ylmethyl]-urea] | 8.82 | 7.4 | 4.8 |  | 
Cc1nc(CNC(=O)NC2CC3(CCC3)C2)cc(OCC(F)(F)F)n1 [Example 60, 1-[2-Methyl-6-(2,2,2-trifluoro-ethoxy)-pyrimidin-4-ylmethyl]-3-spiro[3.3]hept-2-yl-urea] | 7.38 | 144 | 109 |  | 
C[C@H](NC(=O)NC1CC2(CCC2)C1)c1cccc(C(F)(F)F)c1 (single isomer, unassigned) [Example 175] | 7.52 | 5.5 | 9 |  | 
CC(NC(=O)NC1CC2(CCC2)C1)c1ccnc(OC(C)C(F)(F)F)c1 (centres unmarked) [Example 101, 1-(Spiro[3.3]heptan-2-yl)-3-(1-(2-((1,1,1-trifluoropropan-2-yl)oxy)pyridin-4-yl)ethyl)urea] |  | 1.6 | 2.4 |  | 
O=C(NC1CC2(CCC2)C1)NC(CC(F)F)c1cccc(C(F)(F)F)c1 (racemic) [Example 84, (±)-1-[3,3-Difluoro-1-(3-trifluoromethyl-phenyl)-propyl]-3-spiro[3.3]hept-2-yl-urea] |  | 4.2 | 5.1 |  | 
CC(NC(=O)NC1CC2(CCC2)C1)c1cccc(OCC(F)(F)F)c1Cl (racemic) [Example 30, (±)-1-{1-[2-Chloro-3-(2,2,2-trifluoro-ethoxy)-phenyl]-ethyl}-3-spiro[3.3]hept-2-yl-urea] |  | 269 | 252 |  | 
COCCOCC(NC(=O)NC1CC2(CCC2)C1)c1cccc(C(F)(F)F)c1 (racemic) [Example 71, (±)-1-[2-(2-Methoxy-ethoxy)-1-(3-trifluoromethyl-phenyl)-ethyl]-3-spiro[3.3]hept-2-yl-urea] |  | 105 | 92 |  | 
COCC(Oc1cc(CNC(=O)NC2CC3(CCC3)C2)ccn1)C(F)(F)F (single isomer, unassigned) [Example 171, 1-Spiro[3.3]hept-2-yl-3-[2-(2,2,2-trifluoro-1-methoxymethyl-ethoxy)-pyridin-4-ylmethyl]-urea] |  |  |  | 377 | 252
O=C(NC1CC2(CCC2)C1)NC(CO)c1cc(OCC(F)(F)F)ncn1 (racemic) [Example 83, (±)-1-{2-Hydroxy-1-[6-(2,2,2-trifluoro-ethoxy)-pyrimidin-4-yl]-ethyl}-3-spiro[3.3]hept-2-yl-urea] |  | 100 | 93 |  | 
O=C(NCc1cccc(OC(F)(F)F)c1)NC1CC2(CC2)C1 [Example 156, 1-Spiro[2.3]hex-5-yl-3-(3-trifluoromethoxy-benzyl)-urea] |  | 83 | 60 |  | 
CC(NC(=O)NC1CC2(C1)CC(F)(F)C2)c1cccc(C(F)(F)F)c1 (racemic) [Example 161, (±)-1-(6,6-Difluoro-spiro[3.3]hept-2-yl)-3-[1-(3-trifluoromethyl-phenyl)-ethyl]-urea] |  | 97 | 78 |  | 
NC(=O)CCC(NC(=O)NC1CC2(CCC2)C1)c1cccc(C(F)(F)F)c1 (racemic) [Example 79, (±)-4-(3-Spiro[3.3]hept-2-yl-ureido)-4-(3-trifluoromethyl-phenyl)-butyramide] |  | 634 | 599 |  | 
CC(NC(=O)NC1CC2(CCC2)C1)c1cccc(OC(F)(F)F)c1 (centres unmarked) [Example 119, 1-Spiro[3.3]hept-2-yl-3-[1-(3-trifluoromethoxy-phenyl)-ethyl]-urea] |  | 12 | 10 |  | 
CC(NC(=O)NC1CC2(CCC2)C1)c1cccc2c1OC(F)(F)O2 (racemic) [Example 47, (±)-1-[1-(2,2-Difluoro-benzo[1,3]dioxol-4-yl)-ethyl]-3-spiro[3.3]hept-2-yl-urea] |  | 222 | 103 |  | 
CC(Oc1nccc(CNC(=O)NC2CC3(CCC3)C2)n1)C(F)(F)F (single isomer, unassigned) [Example 180, 1-Spiro[3.3]hept-2-yl-3-[2-(-2,2,2-trifluoro-1-methyl-ethoxy)-pyrimidin-4-ylmethyl]-urea] |  |  |  | 78 | 62
CC(Oc1cccc(C2(NC(=O)NC3CC4(CCC4)C3)CC2)c1)C(F)(F)F (racemic) [Example 111, (±)-1-Spiro[3.3]hept-2-yl-3-{1-[3-(2,2,2-trifluoro-1-methyl-ethoxy)-phenyl]-cyclopropyl}-urea] |  | 34 | 26 |  | 
CC(NC(=O)NC1CC2(CCC2)C1)c1ccnc(OCC(F)(F)F)c1 (racemic) [Example 93, (±)-1-Spiro[3.3]hept-2-yl-3-{1-[2-(2,2,2-trifluoro-ethoxy)-pyridin-4-yl]-ethyl}-urea] |  | 2.2 | 1.9 |  | 
N#CCC(NC(=O)NC1CC2(CCC2)C1)c1cccc(C(F)(F)F)c1 (racemic) [Example 67, (±)-1-[2-Cyano-1-(3-trifluoromethyl-phenyl)-ethyl]-3-spiro[3.3]hept-2-yl-urea] |  | 11 | 10 |  | 
O=C(NCc1cccc(OC(F)(F)F)c1F)NC1CC2(CCC2)C1 [Example 8, 1-(2-Fluoro-3-trifluoromethoxy-benzyl)-3-spiro[3.3]hept-2-yl-urea] |  | 35 | 78 |  | 
N#CC(NC(=O)NC1CC2(CCC2)C1)c1cccc(C(F)(F)F)c1 (centres unmarked) [Example 55, 1-[Cyano-(3-trifluoromethyl-phenyl)-methyl]-3-spiro[3.3]hept-2-yl-urea] |  | 48 | 67 |  | 
CC(Oc1cccc(C2(NC(=O)NC3CC4(CCC4)C3)CC2)c1)C(F)(F)F (single isomer, unassigned) [Example 169, 1-Spiro[3.3]hept-2-yl-3-{1-[3-(2,2,2-trifluoro-1-methyl-ethoxy)-phenyl]-cyclopropyl}-urea] |  |  | 42 | 20 | 
COc1ccc(OCC(F)(F)F)cc1C(C)NC(=O)NC1CC2(CCC2)C1 (racemic) [Example 40, (±)-1-{1-[2-Methoxy-5-(2,2,2-trifluoro-ethoxy)-phenyl]-ethyl}-3-spiro[3.3]hept-2-yl-urea] |  | 382 | 351 |  | 
O=C(NC1CC2(CCC2)C1)NC(CO)c1cccc(C(F)(F)F)c1 (racemic) [Example 76, (±)-1-[2-Hydroxy-1-(3-trifluoromethyl-phenyl)-ethyl]-3-spiro[3.3]hept-2-yl-urea] |  | 17 | 19 |  | 
COCC(NC(=O)NC1CC2(CCC2)C1)c1cccc(C(F)(F)F)c1 (racemic) [Example 9, (±)-1-[2-Methoxy-1-(3-trifluoromethyl-phenyl)-ethyl]-3-spiro[3.3]hept-2-yl-urea] |  | 2.1 | 5.1 |  | 
O=C(NC1CC2(CCC2)C1)NC(c1cccc(C(F)(F)F)c1)c1nc[nH]n1 (centres unmarked) [Example 56, 1-Spiro[3.3]hept-2-yl-3-[(1H-[1,2,4]triazol-3-yl)-(3-trifluoromethyl-phenyl)-methyl]-urea] |  | 9.7 | 27 |  | 
N#CCC(NC(=O)NC1CC2(CCC2)C1)c1cccc(OC(F)(F)F)c1 (racemic) [Example 66, (±)-1-[2-Cyano-1-(3-trifluoromethoxy-phenyl)-ethyl]-3-spiro[3.3]hept-2-yl-urea] |  | 17 | 8.2 |  | 
O=C(NCc1cc(C(F)(F)F)ccc1F)NC1CC2(CC2)C1 [Example 151, 1-(2-Fluoro-5-trifluoromethyl-benzyl)-3-spiro[2.3]hex-5-yl-urea] |  | 419 | 269 |  | 
CC(C)OCC(NC(=O)NC1CC2(CCC2)C1)c1cccc(C(F)(F)F)c1 (racemic) [Example 72, (±)-1-[2-Isopropoxy-1-(3-trifluoromethyl-phenyl)-ethyl]-3-spiro[3.3]hept-2-yl-urea] |  | 238 | 266 |  | 
